In brackets after ≈: the same amount, converted by molar mass. Activity calls are given as the source filed them. The calls are words filed in the database; no cut-off is given here.
How the values were obtained:
Cell membrane [1] = assay: Induction of outer membrane permeabilization in Pseudomonas aeruginosa assessed as increase in NPN uptake by measuring increase in fluorescence intensity at 0.5 to 8 times MIC by NPN-dye based fluorescence analysis; settings: DDE = dose-dependent effect
Staphylococcus aureus [2] = assay: Antibacterial activity against Staphylococcus aureus ATCC 25923 assessed as inhibition of bacterial growth by CLSI based continuous dilution method; assay type: functional
Klebsiella pneumoniae = assay: Antibacterial activity against Klebsiella pneumoniae assessed as inhibition of bacterial growth by CLSI based continuous dilution method; assay type: functional
Pseudomonas aeruginosa [3] = assay: Potency index, ratio of Metronidazole MIC to test compound MIC for antibacterial activity against Pseudomonas aeruginosa assessed as inhibition of bacterial growth by CLSI based continuous dilution method; assay type: functional
Pseudomonas aeruginosa [4] = assay: Antibiofilm activity against Pseudomonas aeruginosa assessed as reduction in biofilm viability at 0.5 to 8 times MIC by crystal violet staining based assay; assay type: functional, organism-based; settings: DDE = dose-dependent effect
Staphylococcus aureus [5] = assay: Antibacterial activity against Staphylococcus aureus ATCC 29213 assessed as inhibition of bacterial growth by CLSI based continuous dilution method; assay type: functional
Cell membrane [6] = assay: Induction of cell membrane permeabilization in Pseudomonas aeruginosa assessed as increase in number of cells with damaged membranes by measuring increase in red fluorescence at 1 times MIC measured for 10 mins by PI staining based fluorescence analysis
Acinetobacter baumannii = assay: Antibacterial activity against Acinetobacter baumannii assessed as inhibition of bacterial growth by CLSI based continuous dilution method; assay type: functional
Escherichia coli [7] = assay: Antibacterial activity against Escherichia coli ATCC 25922 assessed as inhibition of bacterial growth by CLSI based continuous dilution method; assay type: functional
Cell membrane [8] = assay: Disruption of membrane integrity in Pseudomonas aeruginosa assessed as reduction in intact bacterial cells by measuring reduction in fluorescence intensity at 0.5 to 8 times MIC by calcein-AM dye based assay
Pseudomonas aeruginosa [9] = assay: Induction of […] membrane potential depolarization in Pseudomonas aeruginosa assessed as fold increase in fluorescence intensity at 8 times MIC by DiSC35 dye based fluorescence assay; assay type: functional
Pseudomonas aeruginosa [10] = assay: Antibacterial activity against Pseudomonas aeruginosa assessed as inhibition of bacterial growth by CLSI based continuous dilution method; assay type: functional
Enterococcus faecalis = assay: Antibacterial activity against Enterococcus faecalis assessed as inhibition of bacterial growth by CLSI based continuous dilution method; assay type: functional
Escherichia coli [11] = assay: Antibacterial activity against Escherichia coli assessed as inhibition of bacterial growth by CLSI based continuous dilution method; assay type: functional
Cell membrane [12] = assay: Disruption of membrane integrity in Pseudomonas aeruginosa assessed as increase in nucleic acid leakage by measuring fold reduction in optical density at 8 times MIC by absorption spectrometry analysis
Aspergillus fumigatus = assay: Antifungal activity against Aspergillus fumigatus assessed as inhibition of fungal growth by CLSI based continuous dilution method; assay type: functional, organism-based
[13] = Cytotoxicity against human HepG2 cells assessed as reduction in cell viability; assay type: toxicity, cell-based
Pseudomonas aeruginosa [14] = assay: Antibacterial activity against Pseudomonas aeruginosa ATCC 27853 assessed as inhibition of bacterial growth by CLSI based continuous dilution method; assay type: functional
Cell membrane [15] = assay: Disruption of membrane integrity in Pseudomonas aeruginosa assessed as increase in protein leakage by measuring reduction in fluorescence intensity at 0.5 to 8 times MIC incubated for 6 hrs by bradford assay
Pseudomonas aeruginosa [16] = assay: Potency index, ratio of norfloxacin MIC to test compound MIC for antibacterial activity against Pseudomonas aeruginosa assessed as inhibition of bacterial growth by CLSI based continuous dilution method; assay type: functional
Staphylococcus aureus [17] = assay: Antibacterial activity against methicillin-resistant Staphylococcus aureus assessed as inhibition of bacterial growth by CLSI based continuous dilution method; assay type: functional
Pseudomonas aeruginosa [18] = assay: Antibiofilm activity against Pseudomonas aeruginosa assessed as reduction in biofilm viability at 8 times MIC by crystal violet staining based assay relative to control; assay type: functional
Staphylococcus aureus [19] = assay: Antibacterial activity against Staphylococcus aureus assessed as inhibition of bacterial growth by CLSI based continuous dilution method; assay type: functional
Cell membrane [20] = assay: Induction of inner membrane permeabilization in Pseudomonas aeruginosa assessed as increase in PI uptake by measuring increase in fluorescence intensity at 0.5 to 8 times MIC by propidium iodide staining based fluorescence analysis; settings: DDE = dose-dependent effect
Pseudomonas aeruginosa [21] = assay: Potency index, ratio of Berberine MIC to test compound MIC for antibacterial activity against Pseudomonas aeruginosa assessed as inhibition of bacterial growth by CLSI based continuous dilution method; assay type: functional
[22] = Cytotoxicity against human HepG2 cells assessed as cell viability at 1 times MIC relative to control; assay type: toxicity, cell-based; settings: read-out: Activity

For `COc1cc(/C=N/OCc2ccccc2)c2c(c1OCC(O)Cn1c([N+](=O)[O-])cnc1C)CN1CCc3cc4c(cc3C1C2)OCO4` (stereo unspecified), the Activity (Cell membrane [1]) was “Dde”, the MIC (Staphylococcus aureus [2]) was 24 µM (≈ 15.4 µg/mL) and the MIC (Klebsiella pneumoniae) was 24 µM (≈ 15.4 µg/mL). For the same compound, the Ratio (Pseudomonas aeruginosa [3]) was 62, the Activity (Pseudomonas aeruginosa [4]) was “Dde” and the MIC (Staphylococcus aureus [5]) was 49 µM (≈ 31.4 µg/mL). For the same compound, the Activity (Cell membrane [6]) was “Active”, the MIC (Acinetobacter baumannii) was 24 µM (≈ 15.4 µg/mL) and the MIC (Escherichia coli [7]) was 99 µM (≈ 63.5 µg/mL). For the same compound, the Activity (Cell membrane [8]) was “Active”, the “fold change (FC)” value (Pseudomonas aeruginosa [9]) was 4 and the MIC (Pseudomonas aeruginosa [10]) was 24 µM (≈ 15.4 µg/mL). The MIC (Enterococcus faecalis) was 49 µM (≈ 31.4 µg/mL), the MIC (Escherichia coli [11]) was 24 µM (≈ 15.4 µg/mL) and the fold change (FC) (Cell membrane [12]) was 0.1. The Activity (Aspergillus fumigatus) was “Active”, the IC50 [13] was > 50 µM and the MIC (Pseudomonas aeruginosa [14]) was 199 µM (≈ 128 µg/mL). For the same compound, the Activity (Cell membrane [15]) was “Active”, the Ratio (Pseudomonas aeruginosa [16]) was 2 and the MIC (Staphylococcus aureus [17]) was 49 µM (≈ 31.4 µg/mL). The Activity (Pseudomonas aeruginosa [18]) was 46.4%, the MIC (Staphylococcus aureus [19]) was 49 µM (≈ 31.4 µg/mL) and the Activity (Cell membrane [20]) was “Dde”. For the same compound, the Ratio (Pseudomonas aeruginosa [21]) was 63 and the viability at 1 times MIC [22] was > 80%.
